Test results published in patent US20250064773A1, “TARGETING ERO1 ALPHA WITH AURONE DERIVATIVES” (West Virginia University Board of Governors on behalf of …, priority 2021, published 2025).

Tested on: normal lung epithelial cell line Beas-2B
Experiment: MTT viability assay, Beas-2B
Format: cell-based
Conditions: Homo sapiens, Normal Lung Epithelium
Text: Cell Lines: PC-9 cell line used was obtained from Sigma Aldrich and grown in RPMI 1640 medium with 10% fetal bovine serum and 1% penicillin/streptomycin. HCC4006, U266, MM1.s, and Beas-2B cell lines were obtained from ATCC and cultured in either RPMI 1640 or DMEM with 10% fetal bovine serum and 1% penicillin/streptomycin. All cell lines were also checked for mycoplasma every six months and subjected to short tandem repeat (STR) analysis for cell line validation. CRISPR Cas9: CRISPR Guide RNA 2 targeting ERO1α and CRISPR Guide RNA 4 were purchased from Genscript in the pLentiCRISPR V2 plasmid containing puromycin/ampicillin selection marker. Lentivirus was made from HEK 293T cells by co-transfection with GuideRNA of interest, pVSVG, and pPAX2 plasmids. […] Plate was then read on the BioTek Cytation 5 at 530/590 nm. […] Plate was then read at 570 nm. Treated wells were all compared to DMSO control wells to calculate percent growth inhibition and the IC50 was calculated using GraphPad (log(inhibitor) vs growth inhibition). […] Images were then quantified using ImageJ. […] Cells were aliquoted at 1 million cells per PCR tube in PBS and heated in Bio-Rad T100 thermal cycler at indicated temperatures (RT, 46° C., 48° C., 50° C., 52° C., 54° C., 56°, 58° C., and 60° C.) for 3 minutes and aggregation temperature was determined by western blot analysis. […]

Q: For `CN(C)c1ccc(/C=C2\Oc3cc(O)ccc3C2=O)cc1` [Compound T151742], which IC50 is on record?
A: Its IC50 is > 100 µM.
